Reference: ChEMBL document CHEMBL5346885, “"Hit" to lead optimization and chemoinformatic studies for a new series of Autotaxin inhibitors” (Eur J Med Chem, 2023)
Converted amounts (≈) assume the structure as drawn. The source made the active and inactive calls. The rule behind the calls is not given here.

Experiments:
[1] = molecular target: T1, Autotaxin (Homo sapiens, UniProt Q13822); test: Inhibition of human ATX using LPC as substrate preincubated with compound for 15 mins followed by substrate addition measured after 30 mins by Amplex Red reagent based fluorescence analysis
[2] = molecular target: Autotaxin (Mus musculus, UniProt Q9R1E6); test: Inhibition of mouse ATX using LPC as substrate preincubated with compound for 15 mins followed by substrate addition measured after 30 mins by Amplex Red reagent based fluorescence analysis
[3] = Kinetic solubility of compound in simulated gastric fluid at pH 1.7 by HPLC analysis
[4] = Kinetic solubility of compound in PBS at pH 7.4 by HPLC analysis
[5] = Kinetic solubility of compound in simulated intestinal fluid at pH 6.6 by HPLC analysis
[6] = system: A549; test: Inhibition of cell migration in human A549 cells at 5 uM incubated for 24 hrs by crystal violet staining based transwell assay; format: functional
[7] = system: A549; test: Antitumor activity against human A549 cells assessed as redcution in cell viability measured after 24 hrs by MTT assay; format: functional, cell-based; settings: dose 0.5-50 µM
[8] = system: A549; test: Antiproliferative activity against human A549 cells assessed as redcution in cell growth measured after 24 hrs by MTT assay; format: functional, cell-based; settings: dose 0.5-50 µM
[9] = molecular target: T1, Autotaxin; test: Mixed type inhibition of human ATX assessed as inhibition constant using LPC as substrate by Lineweaver-Burk plot analysis
[10] = Cytotoxicity against wild type Fibroblast (unknown origin) assessed as redcution in cell growth measured after 48 hrs by crystal violet staining based analysis; settings: wild type fibroblasts
[11] = system: CO[C@](C(=O)Nc1c2c(nn1-c1ccc(Br)cc1)CSC2)(c1ccccc1)C(F)(F)F; test: (§1) Mixed type inhibition of human ATX assessed as km using LPC as substrate by Lineweaver-Burk plot analysis
[12] = system: O=C(Nc1c2c(nn1-c1ccc(Br)cc1)CSC2)c1cc(Cl)cc(Cl)c1; test: as §1
[13] = molecular target: 3',5'-cyclic phosphodiesterase; test: Inhibition of PDE (unknown origin); format: protein assay, Homo sapiens

Compound | IC50 [1] [µM] | IC50 [2] [µM] | further results
Cc1ccc(-n2nc3c(c2NC(=O)c2cccc4ccccc24)CSC3)cc1Cl |  | 80 | 
O=C(Nc1c2c(nn1-c1ccc(F)c(Cl)c1)CSC2)c1cccc2ccccc12 |  | 40.8 | 
CCc1nc2c(C)cc(N3CCN(CC(=O)N4CC(O)C4)CC3)cn2c1N(C)c1nc(-c2ccc(F)cc2)c(C#N)s1 [ZIRITAXESTAT] |  |  | solubility kinetic [3]: 200 µM (≈ 118 µg/mL); solubility kinetic [4]: 96.9 µM (≈ 57 µg/mL); solubility kinetic [5]: 97 µM (≈ 57.1 µg/mL)
O=C(Cc1ccc(F)cc1)Nc1c2c(nn1-c1ccc(Br)cc1)CSC2 | 7.6 |  | 
O=C(c1cc(Cl)cc(Cl)c1)N1CCN(c2c3c(nn2-c2ccc(Br)cc2)CSC3)CC1 | 70 |  | 
CC(C)(C)n1nc2c(c1NC(=O)c1cccc3ccccc13)CSC2 |  | > 100 | 
O=C(Cc1ccc2ccccc2c1)Nc1c2c(nn1-c1ccc(Br)cc1)CSC2 | 21.2 |  | 
O=C(Nc1c2c(nn1-c1ccc(Br)cc1)CSC2)c1cc(Cl)cc(Cl)c1 | 6.7 | 1.8 | inhibition [6]: Active; solubility kinetic [3]: 5.02 µM (≈ 2.36 µg/mL); Activity [7]: Dose-Dependent Effect; Activity [8]: Dose-Dependent Effect; solubility kinetic [5]: 4.18 µM (≈ 1.96 µg/mL); Ki [9]: 6.26 µM; CC50 at 48 h [10]: > 100 µM
CO[C@](C(=O)Nc1c2c(nn1-c1ccc(Br)cc1)CSC2)(c1ccccc1)C(F)(F)F | 2 |  | inhibition [6]: Active; solubility kinetic [3]: 16.7 µM (≈ 8.58 µg/mL); solubility kinetic [4]: 1.26 µM (≈ 0.646 µg/mL); Activity [7]: Dose-Dependent Effect; Activity [8]: Dose-Dependent Effect; solubility kinetic [5]: 2.55 µM (≈ 1.31 µg/mL); Ki [9]: 6.83 µM; CC50 at 48 h [10]: > 100 µM
O=C(Nc1c2c(nn1-c1ccc(Br)cc1)CSC2)c1cc(F)cc(C(F)(F)F)c1 | 11.2 |  | 
O=C(Nc1c2c(nn1-c1ccc(Br)cc1)CCC2)c1cc(Cl)cc(Cl)c1 | 6.6 |  | 
Autotaxin (Homo sapiens) (from UniProt Q13822) |  |  | Km [11]: 5.61 µM; Km [12]: 17.1 µM
O=C(CN1CCN(C(=O)c2cc(Cl)cc(Cl)c2)CC1)Nc1ccn(-c2ccc(Br)cc2)n1 | 25 |  | 
Cc1cc(C(=O)Nc2c3c(nn2-c2ccc(Br)cc2)CSC3)ccc1F | 41.8 |  | 
O=C(Nc1c2c(nn1-c1cnccn1)CSC2)c1cccc2ccccc12 | 0.9 | 1.8 | IC50 [13]: 0.33 µM
O=C(Nc1c2c(nn1-c1cc(F)cc(F)c1)CSC2)c1cccc2ccccc12 |  | 53.7 | 
O=C(CCN1CCN(C(=O)OCc2cc(Cl)cc(Cl)c2)CC1)c1ccc2[nH]c(=O)oc2c1 |  |  | solubility kinetic [3]: 15.4 µM (≈ 7.35 µg/mL); solubility kinetic [4]: 1.22 µM (≈ 0.584 µg/mL)
CO[C@](C(=O)Nc1c2c(nn1-c1ccc(Br)cc1)CCC2)(c1ccccc1)C(F)(F)F | 24.4 |  | 
O=C1S/C(=C\c2ccc(OCc3ccc(B(O)O)cc3)cc2)C(=O)N1Cc1ccc(F)cc1 |  |  | solubility kinetic [3]: 3.08 µM (≈ 1.43 µg/mL); solubility kinetic [5]: 1.05 µM (≈ 0.486 µg/mL)
O=C(Nc1c2c(nn1-c1ccc(Br)cc1)CSC2)c1ccc(C(F)(F)F)cc1 | 37.3 |  | 
O=C(Cc1ccc(F)cc1)Nc1c2c(nn1-c1ccncc1)CSC2 | > 50 |  | 
O=C(Nc1c2c(nn1-c1ccc(Br)cc1)COC2)c1cc(Cl)cc(Cl)c1 | > 100 |  | 

Further lines, with some results ahead:

IC50 [1] [µM] | IC50 [2] [µM] | Compound | further results
> 100 |  | O=C(Nc1c2c(nn1-c1ccc(Br)cc1)CS(=O)(=O)C2)c1cccc2ccccc12 | 
 | 46.6 | O=C(Nc1c2c(nn1-c1ccc(C(F)(F)F)cc1)CSC2)c1cccc2ccccc12 | 
> 100 | > 100 | O=C(Nc1c2c(nn1-c1ccccc1)CSC2)c1cccc2ccccc12 | 
 | 63 | O=C(Nc1c2c(nn1-c1ccc(F)c(F)c1)CSC2)c1cccc2ccccc12 | 
> 100 | > 100 | COc1ccc(-n2nc3c(c2NC(=O)c2cccc4ccccc24)CSC3)cc1 | 
 | 79.8 | NS(=O)(=O)c1ccc(-n2nc3c(c2NC(=O)c2cccc4ccccc24)CSC3)cc1 | 
 | 48.3 | O=C(O)c1ccc(-n2nc3c(c2NC(=O)c2cccc4ccccc24)CSC3)cc1 | 
4.6 | 5.3 | O=C(Nc1c2c(nn1-c1ccc(Br)cc1)CSC2)c1cccc2ccccc12 | 
 | 22.1 | O=C(Nc1c2c(nn1-c1ccc(OC(F)(F)F)cc1)CSC2)c1cccc2ccccc12 | 
 | 40 | O=C(Nc1c2c(nn1-c1ccc(Cl)c(Cl)c1)CSC2)c1cccc2ccccc12 | 
 | > 100 | COC(=O)c1ccc(-n2nc3c(c2NC(=O)c2cccc4ccccc24)CSC3)cc1 | 
5.3 | 2.7 | O=C(Nc1c2c(nn1-c1ccncc1)CSC2)c1cccc2ccccc12 | 
16 | 38.4 | O=C(Nc1c2c(nn1-c1ccc([N+](=O)[O-])cc1)CSC2)c1cccc2ccccc12 | IC50 [13]: 73 µM; solubility kinetic [3]: 2.73 µM (≈ 1.14 µg/mL); CC50 at 48 h [10]: > 100 µM
12.1 |  | O=C(Nc1c2c(nn1-c1ccc(Br)cc1)CSC2)c1ccc2ccccc2c1 | 
